# Laboratory results: patent US7605149B1, “Modulation of the phospholipase A2 pathway as a therapeutic” (University of South Florida, priority 1998, dated 2009)
# Experiments:
# [1] = test system: p38 MAPK in differentiated PC12 cells; experiment: Immunolocalization of activated p38 MAPK in neuronal cells; assay type: cell-based, rat; details: 10 and 20 min, FIG. 26
# Experimental: Immunolocalization of activated p38 MAPK in neuronal cells. Cells were treated as described above, and were plated on glass cover-slips which had been soaked in 10 μg/mL of mouse laminin. Following differentiation, neuronal cells were treated with soluble Aβ1-40 (5 μM) or anasomycin (20 μM, a known stimulator of p38 MAPK) for 10 and 20 min, and immediately fixed in 4% paraformaldehyde in 0.1 M PBS, pH 7.4 for 30 min at 4° C. Cells were washed multiple times in PBS, and incubated for 3 h with a phospho-specific antibody recognizing active active p38 MAPK. Cells were then washed multiple times in PBS and incubated with a secondary HRP-conjugated antibody. Immunostaining was performed using the DAKO ABC kit, cells were counterstained with hematoxylin-eosin, and cells were then observed under a microscope.
# [2] = test system: N9 microglia; experiment: [3H]AA release in cultured microglial cells; assay type: cell-based, murine; details: FIG. 24
# Experimental: Measurement of [^3H]AA release in cultured cells. Microglial cells were cultured as described above, seeded at 50,000 cells/well in 6-well plates (Falcon, France), and incubated with 0.4 μCi/mL [^3H]AA for 18 h. Cells were washed multiple times with 1 mL of complete medium and were then treated with 1 μM of Aβ1-40 or 10 U/mL of sPLA2 for 5 h. Cell culture supernatants were collected each hour following treatment and radioactivity was quantified as described above.
# (§1) Statistical analysis. Analysis of variance (ANOVA) was used to analyze the data, with post-hoc comparisons of means carried out where appropriate by Sheffe's or Bonferonni's methods. As previously described (Paris et al., Neurosci Lett, 1998), a significant interactive term by ANOVA was taken as evidence that both drug x and Aβ are modulating a common signal transduction pathway. […] Levene's test for equality of variance followed by t-test for independent samples was used for single mean comparisons. Alpha levels were set at 0.05 for all analyses. Analyses were performed using SPSS for Windows release 9.5.
# [3] = test system: NGF-β differentiated PC12 cells; experiment: [3H]AA release in neuronal cells; assay type: cell-based, rat; details: FIG. 25
# Experimental: Measurement of [^3H]AA release in neuronal cells (cultured differentiated PC12 cells). A rat pheochromocytoma cell line (PC12) was grown in Kahn's modification of F12 medium supplemented with 10% fetal calf serum, 100 U/mL penicillin and […] streptomycin. PC12 cells were seeded at 35,000 cells/well and differentiated with 60 ng/mL NGF-β for 5-6 days and then maintained with 5 ng/mL NGF-β thereafter. PC12 cells were treated with 0.4 μCi/mL of [^3H]AA for 18 h and were washed multiple times with 1 mL of complete medium to remove unincorporated [^3H]AA. Cells were then treated with 1 μM of Aβ1-40 or 40 U/mL of sPLA2 for 5 h. Cell culture supernatants were collected each hour following treatment and radioactivity was quantified as described above.
# Statistical analysis. Analysis of variance (ANOVA) was used to analyze the data, with post-hoc comparisons of means carried out where appropriate by Sheffe's or Bonferonni's methods. Levene's test for equality of variance followed by t-test for independent samples was used for single mean comparisons. Alpha levels were set at 0.05 for all analyses. Analyses were performed using SPSS for Windows release 9.5.
# [4] = test system: rat aortae (aortic rings); experiment: Vessel bath vasoactivity assay: ET-1-induced vasoconstriction of rat aortic rings and its enhancement by Aβ or sPLA2; assay type: cell-based
# Experimental: Vessel experiments. Freshly dissected aortae were prepared from normal male Sprague-Dawley rats (7-8 months old, purchased from Zivic Miller, Zelienople, Pa.) as previously described by Paris et al, Exp Neurol 1998 and Exp Neurol 1999. Rat aortae were segmented into rings and suspended in Kreb's buffer on hooks connected to a tensiometer linked to a MacLab system. Aortic rings were equilibrated for 2 hours, in 7 mL tissue baths containing Kreb's buffer oxygenated with 95% O2: 5% CO2, and thermoregulated to 37° C. A baseline tension of 2 g was applied to each ring, and the first set of aortic rings was pretreated with the various compounds named above either alone or in combination with Aβ peptides. After 5 minutes of incubation in the presence or absence of Aβ, this first set of vessels was subjected to a dose range of ET-1 (from 1 nM to 5 nM). A second set of vessels was treated with 1 μM of Aβ peptides prior to the addition of ET-1. A third set (control) received only ET-1 treatment. Each ET-1 dose was added only after the constriction response to the previous dose had reached a plateau. In all cases the means ±1 standard error (SE) of the percentage vasoconstriction increase over baseline were determined for each dose of ET-1 used.
# as §1
# [5] = test system: N9 microglial cells; experiment: Leukotriene B4 (LTB4) ELISA on microglial cell supernatants; assay type: cell-based, murine; details: 500 nM, 18 hours; FIG. 23
# Experimental: Leukotriene -B4 (LTB4) enzyme-linked immunoabsorbant assay (ELISA). Quantitative determination of LTB4 levels was made using a competitive binding ELISA (R&D Systems, Minneapolis, Minn.) designed to measure LTB4 in cell culture supernatants (as described in Paris et al., Exp Neurol 1999). A murine microglial cell line (N9) was provided by Dr. Paola Ricciardi-Castagnoli (Cellular Pharmacology Center, Milan, Italy) and were grown in RPMI medium supplemented with five percent fetal calf serum, 2 mM glutamine, 100 U/mL penicillin, […] streptomycin and 0.05 mM 2-mercaptoethanol. Microglial cells were seeded at 50,000 cells/well in 6-well plates (Falcon, France) and treated with Aβ1-40 (500 nM), drugs which oppose the PLA2/AA/5-LOX/COX-2 pathway, or untreated (control) and incubated for 18 hours. Cell supernatants were then collected and diluted 10-fold in assay buffer. 50 μL of diluted samples were then used in the assay, and each sample was assayed in duplicate. Manipulations were performed in accordance with the manufacturer's instruction. A spectramax 250 spectrophotometer (Molecular Devices, San Diego, USA) was used to measure absorbance at 405 nm and a standard curve was plotted using a 4-parameter model.
# as §1
# [6] = test system: intact rat aortae (aortic rings); experiment: [3H]AA release in intact rat aortae; assay type: cell-based; details: 5 minutes, then ET-1 dose range
# Experimental: Measurement of [^3H]AA release in intact rat aortae. Aortic rings (1.5 mm long) were placed in 1 mL of physiological saline solution (PSS, containing 130 mM NaCl, 5 mM KCl, 1.5 mM CaCl2, 1.2 mM MgCl2, 10 mM HEPES, and 10 mM glucose adjusted to pH 7.2 with NaOH) and incubated with 2.5 μCi of [^3H]AA (specific activity of 91.8 Ci/mmol) for 24 h at 4° C. Rat aortae were subsequently washed in 50 mL of Kreb's buffer and then subjected to the vasoactivity assay. Initial background [^3H]AA release was determined following 30 min of equillibration for each aortic ring prior to treatment by removing 200 μL of Kreb's buffer (total volume of 7 mL each) from each bath, and measuring radioactivity (in cpm) after the addition of 1 mL of scintillant (EcoLume, ICN Inc., Calif.) using a liquid scintillation counter (1209 Rackbeta, WALLAC Inc., Md.). Subsequently, aortic rings were treated with sPLA2 alone or Aβ1-40 (1 μM) in the presence or absence of a MEK1/2 inhibitor (PD 98059) or a cPLA2 inhibitor (AACOCF3) for 5 min, or went untreated for the same length of time (control). Quantification of [^3H]AA release was then preformed as described above. All aortic rings were then subjected to a dose range of ET-1 (1, 2.5, and 5 nM), and radioactivity was measured 5 min after the first dose of ET-1 (1 nM), and 20 min after the second (2.5 nM) and third (5 nM) doses of ET-1. Radioactivity incorporated into each ring was determined by placing the aortic ring in 1 mL of scintillant and assaying as described above. Results are expressed as the means ±1 SE of the percentage of [^3H]AA incorporated for each aortic ring [([^3H]AA released—[^3H]AA initial background)/incorporated [^3H]AA].
# as §1
# [7] = test system: rat aortae (aortic rings); details: freshly solubilized; previously shown (Crawford et al., 1998); cited from earlier work
molecule,measurement,setting,value
COc1ccc(C[C@H]2NC[C@H](O)[C@H]2OC(C)=O)cc1 [anisomycin],activation of p38 MAPK (phospho-specific immunostaining),[1]; 20 μM,"brown immunostaining is intensified, and a strong nuclear staining is evident"
"Aβ1-40: soluble β-amyloid peptide containing forty amino acids, obtained from QCB",[3H]AA release in N9 microglia,[2]; 1 μM for 5 h,stimulates AA release from N9 microglia
same,[3H]AA release in neuronal cells,[3]; 1 μM for 5 h,stimulates AA release from neuronal cells
same,enhancement of ET-1-induced vasoconstriction versus Aβ-free condition,"[4]; 50 nM dose, across 2.5 nM and 5 nM ET-1, FIG. 1",significant difference
same,duration of ET-1-induced vasoconstriction (vasotension t=0 to 10 minutes after 5 nM ET-1),"[4]; 1 μM, 5 minutes prior to ET-1 (1, 2.5, 5 nM), FIG. 2",induces a long-lasting vasoconstriction
same,lowest dose giving sustained constriction / enhancement of ET-1-induced vasoconstriction,[4]; freshly solubilized peptide,≤ 50 nM
same,microglial LTB4 release,[5],increased release of LTB4
same,activation of p38 MAPK (phospho-specific immunostaining),[1]; Aβ1-40 5 μM,increases the phosphorylation of p38 MAPK
same,[3H]AA release from aortic rings,"[6]; Aβ1-40 1 μM, FIG. 21",enhances the release of [^3H]AA from aortic rings
same,magnitude of constriction induced by ET-1 in isolated mammalian vessels,[7],increase the magnitude of constriction induced by ET-1
"type I sPLA2: secretory porcine pancreatic PLA2 (type I sPLA2), purchased from Sigma",[3H]AA release in N9 microglia,[2]; 10 U/mL for 5 h,induces the release of [^3H]AA
same,[3H]AA release in neuronal cells,[3]; 40 U/mL for 5 h,induces the release of [^3H]AA
same,effect on ET-1-induced vasoconstriction,"[4]; 1 U/mL, 5 minutes prior to ET-1 dose range, FIG. 6",able to enhance the vasoconstriction induced by ET-1
same,intrinsic vasoactive properties,"[4]; added directly into the vessel bath, without ET-1",does not display intrinsic vasoactive properties
same,[3H]AA release from aortic rings,"[6]; 10 U/mL, FIG. 20",increased release of [^3H]AA
